Broadly, the IC50 is the concentration that inhibits the measured activity by half.

The record followed here is patent US7507727B2, “Substituted quinobenzoxazine analogs and methods of using thereof” (Cylene Pharmaceuticals, Inc., priority 2003, dated 2009).

Entries after “also recorded” stand apart in the source; their conditions may differ.

The target in data set [1] is c-Myc template DNA (c-myc quadruplex). The experiment in a line: Quadruplex binding / stop assay (Taq polymerase arrest, capillary electrophoresis). The following applies: read-out: IC50 value in the stop assay; arrest product/full-length product ratio 1:1; FIG. 2.
Another data set deals with HCT-116 cells. The experiment in a line: Annexin V-Alexa 488 staining. The class given is cell-based. The note with it: 2 uM and 4 uM, 24 hr. As to the method: The following protocol was followed for this example. […] Incubate o/n or up to 24 hrs at 37° C. in CO2 incubator. […] Keep one or two untreated plates (medium only) as control plates. […] Harvest cells (collect attached as well as floating cells). Wash cells twice with cold PBS. Re-suspend cells in 1× Annexin binding buffer.
Count cells and dilute in 1× Annexin binding buffer to ˜1×10^6 cells/0.1 ml, preparing a sufficient volume to have 100 μl per assay. Add 5 μl of the Annexin V conjugate to each 100 μl of cell suspension. Add 4 μl of propidium iodide solution (stock=1 mg/ml) to each 100 μl of cell suspension. Incubate sample at RT for 15 minutes. Add 400 μl Annexin binding buffer, mix gently and keep samples on ice. Analyze stained cells immediately by flow cytometry.

For the next data set, the system named is c-MYC mRNA. The experiment in a line: c-MYC mRNA expression in tumor samples by QPCR. The following applies: HCT-116. The class given is in vivo, mice. The protocol: (§1) CX-3543 was tested against a number of cancer xenograft models to determine the in vivo efficacy. HCT-116 and PC-3 tumor-bearing nu/nu or MiaPaCa tumor-bearing SCID mice were administered reference and testing compounds on schedules indicated in figure legends. Tumor measurements were taken with calipers every other day or twice a week starting from the first day of dosing and body weights were measured at the same time points. Tumor volumes were calculated from the standard formula, W^2×L/2. c-MYC mRNA expression was measured with QPCR from all tumor samples following the final dose. 18S ribosomal RNA was used as a housekeeper and also quantified with QPCR.

A short description of data set [2]: Subacute study of intravenously administered CX-3543 in rats (safety and tolerance). The class given is in vivo. The protocol: This study determines the safety and tolerance of CX-3543 at three dose levels administered intravenously once daily to rats for five consecutive days. Safety parameters will be monitored through observation, clinical pathology, and microscopic histopathology assessments. Selected animals will also undergo blood sample collection for pharmacokinetic/toxicokinetic evaluation.
The study was conducted using three (3) test and one (1) control article groups. The high and low test article groups and the control group consisted of 28 animals each and were used to assess tolerance. The medium test article group consisted of 64 animals of which 28 animals were used to assess tolerance and 36 animals were used to determine the level of test article in the blood at various time points after the first and fifth doses in the PK/TK portion of the study. The control article was the solution (5% dextrose in water; D5W) used to dilute the test article prior to administration and was administered at the same volume as the high dose test article group. The test article dosage levels for this study were 24, 7.6, and 2.4 mg/kg. Test and control articles were administered by intravenous (IV) injection into a tail vein over one minute on five consecutive days.
Blood samples for test article blood level analysis were taken as follows. […]

The next data set concerns the target topoisomerase I (Homo sapiens, UniProt P11387). The experiment in a line: Topoisomerase I inhibition. The class given is biochemical.
The next data set relates to MiaPaCa xenograft. The experiment in a line: MiaPaCa pancreatic cancer xenograft model. The class given is in vivo, mice. The note with it: 5, 10 and 15 mg/kg i.p. q.o.d., FIG. 10. The protocol: as §1

topoisomerase I, sequence (P11387 whole entry): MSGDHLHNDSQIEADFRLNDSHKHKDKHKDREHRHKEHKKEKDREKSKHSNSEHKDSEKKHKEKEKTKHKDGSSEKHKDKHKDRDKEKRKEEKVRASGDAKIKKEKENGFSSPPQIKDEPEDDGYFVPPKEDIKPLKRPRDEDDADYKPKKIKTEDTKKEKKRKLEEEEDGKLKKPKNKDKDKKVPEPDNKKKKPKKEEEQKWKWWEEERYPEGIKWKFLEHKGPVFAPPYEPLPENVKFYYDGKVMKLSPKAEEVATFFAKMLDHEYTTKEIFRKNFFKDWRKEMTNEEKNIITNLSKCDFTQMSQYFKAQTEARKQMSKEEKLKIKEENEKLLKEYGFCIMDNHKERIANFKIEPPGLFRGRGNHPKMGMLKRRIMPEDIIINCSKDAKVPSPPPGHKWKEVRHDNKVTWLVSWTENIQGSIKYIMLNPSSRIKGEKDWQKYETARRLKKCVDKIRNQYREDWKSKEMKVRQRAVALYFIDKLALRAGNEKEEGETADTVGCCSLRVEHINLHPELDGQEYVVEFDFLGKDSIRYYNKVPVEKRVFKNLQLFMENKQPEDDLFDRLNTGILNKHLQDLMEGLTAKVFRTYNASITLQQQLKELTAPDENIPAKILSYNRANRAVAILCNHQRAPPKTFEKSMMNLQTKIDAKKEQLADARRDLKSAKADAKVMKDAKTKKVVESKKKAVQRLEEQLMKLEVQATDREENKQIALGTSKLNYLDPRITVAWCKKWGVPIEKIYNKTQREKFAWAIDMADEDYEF

Consider `CN1CCCC1CCNC(=O)c1cn2c3c(c(N4CCC(c5cnccn5)C4)c(F)cc3c1=O)Oc1cc3ccccc3cc1-2` (centres unmarked) [CX-3543], for which, in data set [1], the IC50 came out at 1000 nM. Besides, the “staining by a dye positive for Annexin V externalization” value in the data set on HCT-116 cells is on record as “significant increased staining”. Also, the “lowering of c-Myc mRNA expression relative to control (18s rRNA) in tumor tissue” value in the data set with c-MYC mRNA (20 mg/kg group) was determined as 85%. For the same compound, the “c-Myc mRNA expression relative to control (18s rRNA) in tumor tissue” value in the data set with c-MYC mRNA (10, 15 and 20 mg/kg) is on record as “dose-dependent lowering”. Further, the tolerance result in data set [2] (five consecutive daily IV doses, mid- and low-dose levels (7.6 and 2.4 mg/kg)) is given as “toxicologically well tolerated”. Further, the mortality entry in data set [2] (high dose animals (24 mg/kg), five day course) is “approximately 5%”. The “inhibitory activity against topoisomerase I” value on topoisomerase I is recorded as “not to be an inhibitor or poison”. Moreover, in the data set on MiaPaCa xenograft, the tumor growth inhibition entry is reported as “inhibits tumor growth; also recorded: significant tumor growth inhibition”.
